Assay results: patent publication US8188089B2, “Tylophorine analogs as antitumor agents” (The University of North Carolina at Chapel Hill, priority 2006, dated 2012)
Counter-ions that a name gives are not always drawn.

Experiments:
[1] = tested on: human A549 lung cancer cell line; assay: Cell growth inhibition assay (SRB), Example 2, A549; type: cell-based
From the text: Cell Growth Inhibition Assay. The sulforhodamine B assay was used according to the procedures developed and validated at NCI. […] The values were interpolated from dose-response data.

KB (nasopharyngeal) = assay: Cell growth inhibition assay (SRB), Example 2, KB; type: cell-based, human; conditions: Table 6, 72-h continuous treatment
From the text: (§1) Drug-Resistance Study. Twelve active compounds [including four hydrochloride salts (18b, 22b, 24b, 32b) of corresponding active free bases (18a, 22a, 24a, 32a)] were further screened against an extended panel of human tumor cell lines including DU-145 (prostate), ZR-751 (breast), KB (nasopharyngeal), and KB-VIN (multidug-resistant KB subline) in order to explore their antitumor spectra and drug-resistance profiles. Four compounds were used as reference compounds. Antofine is a positional isomer of tylophorine isolated from Asclepiadaceae by Dr. T. S. Wu in Taiwan (Wu, P. L. et al., Heterocycles 2002; 57:2401). […] Doxorubicin (Adriamycin), vincristine, and etoposide (VP-16, Vepesid®) are widely used anticancer agents for treating a range of solid tumors.
(§2) Cell Growth Inhibition Assay. The sulforhodamine B assay was used according to the procedures developed and validated at NCI. The in vitro anticancer activities are expressed as ED50 values, which is the test compound concentration (μM) that reduced the cell number by 50% after 72-h of continuous treatment. The values were interpolated from dose-response data. Each test was performed in triplicate with variation less than 5%. The ED50 values determined in each of independent tests varied less than 10%. Compound stock solutions were prepared in DMSO with the final solvent concentration ≦1% DMSO (v/v), a concentration without effect on cell replication. The cells were cultured at 37° C. in RPMI-1640 supplemented with 25 mM N-2-hydroxyethylpiperazine-N′-2-ethanesulfonic acid (HEPES), […], 10% (v/v) fetal bovine serum, and 100 μg/mL kanamycin in a humidified atmosphere containing 5% CO2.

DU-145 (prostate) = assay: Cell growth inhibition assay (SRB), Example 2, DU-145; type: cell-based, human; conditions: Table 6, 72-h continuous treatment
From the text: as §1, §2

ZR-751 (breast) = assay: Cell growth inhibition assay (SRB), Example 2, ZR-751; type: cell-based, human; conditions: Table 6, 72-h continuous treatment
From the text: as §1, §2

[2] = tested on: KB-VIN (multidug-resistant KB subline); assay: Cell growth inhibition assay (SRB), Example 2, KB-VIN; type: cell-based, human; conditions: Table 6, 72-h continuous treatment
From the text: as §1, §2

[3] = tested on: tumor cell line panel (A549, KB, DU-145, ZR-751, KB-VIN); assay: Cytotoxic activity against the whole tumor cell line panel; type: cell-based, human; conditions: all cell lines of the panel; read-out: ED50 values against the tumor cell line panel
From the text: as §1
Cell Growth Inhibition Assay. The sulforhodamine B assay was used according to the procedures developed and validated at NCI. The in vitro anticancer activities are expressed as ED50 values, which is the test compound concentration (μM) that reduced the cell number by 50% after 72-h of continuous treatment. The values were interpolated from dose-response data. Each test was performed in triplicate with variation less than 5%. The ED50 values determined in each of independent tests varied less than 10%. […]

[4] = tested on: human A549 lung cancer cell line; assay: Cell growth inhibition assay (SRB), Example 1; type: cell-based; conditions: Homo sapiens; table footnotes of Example 1; A549
From the text: Results and discussion. […] Etoposide (VP-16) was used as the reference compound.
Cell Growth Inhibition Assay. The human A549 lung cancer cell line was used for the cytotoxicity screening of PBT derivatives using the cell-based sulforhodamine B (SRB) microtitre plate assay. […] Duration of compound exposure was 3 days.

[5] = Table 6, 72-h continuous treatment, hydrochloride, read-out: EC50 (μM) A549
[6] = Homo sapiens, A549, 72 h, Table 4, ED50, 72-h continuous treatment, NA = not active, read-out: A549 (μM), in vitro anticancer activity against A549 lung cancer cells
[7] = Homo sapiens, A549, 72 h, Table 6, 72-h continuous treatment, read-out: EC50 (μM) A549

EC50 [4] | EC50 (KB (nasopharyngeal); Homo sapiens, 72 h) | EC50 ([2]; Homo sapiens, KBVIN, 72 h) | SMILES | EC50 [1, 5] | EC50 (KB (nasopharyngeal); hydrochloride) | EC50 (DU-145 (prostate); hydrochloride) | EC50 (ZR-751 (breast); hydrochloride) | EC50 ([2]; hydrochloride) | melting point | EC50 [3] | EC50 [1, 6] | EC50 [1, 7] | EC50 (KB (nasopharyngeal)) | EC50 (DU-145 (prostate); Homo sapiens, DU-145, 72 h) | EC50 (ZR-751 (breast); Homo sapiens, ZR-75-1, 72 h) | EC50 [2]
 |  |  | COc1ccc2c(CN3CCC(CCO)CC3)cc3cc4c(cc3c2c1)OCO4.Cl [Compound 32b, N-(2,3-Methylenedioxy-6-methoxy-phenanthr-9-ylmethyl)-4-piperidineethanol hydrochloride] | 0.09 µM | 0.2 µM | 0.1 µM | 0.02 µM | 0.2 µM | 153 to 155 °C |  |  |  |  |  |  | 
 |  |  | COc1ccc2c(CN3CCC(CO)CC3)cc3cc4c(cc3c2c1)OCO4 [Compound 24b, N-(2,3-Methylenedioxy-6-methoxy-phenanthr-9-ylmethyl)-L-4-piperidinemethanol hydrochloride] | 0.07 µM | 0.07 µM | 0.05 µM | 0.04 µM | 0.04 µM |  | < 100 nM |  |  |  |  |  | 
 |  |  | COc1ccc2c(CN3CCC(CCO)CC3)cc3cc4c(cc3c2c1)OCO4 [Compound 32a, N-(2,3-Methylenedioxy-6-methoxy-phenanthr-9-ylmethyl)-4-piperidineethanol] |  |  |  |  |  | 148 to 149 °C |  | 0.15 µM | 0.15 µM | 0.42 µM | 0.15 µM | 0.03 µM | 0.5 µM
 |  |  | COc1ccc2c(CNCCCCCCO)cc3cc4c(cc3c2c1)OCO4.Cl [Compound 22b, N-(2,3-Methylenedioxy-6-methoxy-phenanthr-9-ylmethyl)-6-aminohexanol hydrochloride] | 0.13 µM | 0.23 µM | 0.07 µM | 0.08 µM | 0.16 µM | 187 to 188 °C |  |  |  |  |  |  | 
1400 nM | 4.8 µM | > 10 µM | COc1cc([C@@H]2c3cc4c(cc3[C@@H](O[C@@H]3O[C@@H]5CO[C@@H](C)O[C@H]5[C@H](O)[C@H]3O)[C@H]3COC(=O)[C@H]23)OCO4)cc(OC)c1O [Etoposide (VP-16), Etoposide, reference compound] |  |  |  |  |  |  |  | 1.4 µM | 1.4 µM |  | 2.4 µM | 3.1 µM | 
